Experimental data from US20200179285A1, “BIODEGRADABLE MICROPARTICLES FOR SUSTAINED DELIVERY OF ANTI-ANGIOGENIC PEPTIDE” (The Johns Hopkins University, priority 2017, published 2020).

System: VEGF-induced vascular leakage
Assay: VEGF-induced vascular leakage in rabbit eyes
Format: in vivo
Settings: single injection, day 60, FIG. 4G

aflibercept was tested, and the “activity against VEGF-induced vascular leakage” value was “no longer showed activity”.
